# Columns and labels:
# γ-secretase [1] = target: T1, γ-secretase (Homo sapiens, UniProt P49768); test: Screening for γ-secretase-modulating activity: Aβ42 in cell supernatant (Alphalisa sandwich immuno-assay); format: cell-based; settings: SKNBE2 human neuroblastoma cells carrying hAPP 695-wild type, overnight incubation
# T1 construct: endogenous in cells; host or cells: SKNBE2 human neuroblastoma cells carrying hAPP 695 wild type
# Description: (§1) A) Screening of the Compounds of the Invention for γ-Secretase-Modulating Activity
# (§2) Screening was carried out using SKNBE2 human neuroblastoma cells carrying the hAPP 695-wild type, grown in Dulbecco's Modified Eagle's Medium/Nutrient mixture F-12 (DMEM/NUT-mix F-12) (HAM) provided by Invitrogen (cat no. 10371-029) containing 5% Serum/Fe supplemented with 1% non-essential amino acids, 1-glutamine 2 mM, Hepes 15 mM, penicillin 50 U/ml (units/ml) and streptomycin 50 μg/ml. Cells were grown to near confluency.
# (§3) The screening was performed using a modification of the assay as described in Citron et al (1997) Nature Medicine 3: 67. Briefly, cells were plated in a 384-well plate at 10^4 cells/well in Ultraculture (Lonza, BE12-725F) supplemented with 1% glutamine (Invitrogen, 25030-024), 1% non-essential amino acid (NEAA), penicillin 50 U/ml en streptomycin 50 μg/ml in the presence of test compound at different test concentrations. The cell/compound mixture was incubated overnight at 37° C., 5% CO2. The next day the media were assayed by two sandwich immuno-assays, for Aβ42 and Aβtotal.
# (§4) Aβtotal and Aβ42 concentrations were quantified in the cell supernatant using the Aphalisa technology (Perkin Elmer). Alphalisa is a sandwich assay using biotinylated antibody attached to streptavidin coated donorbeads and antibody conjugated to acceptor beads. In the presence of antigen, the beads come into close proximity. The excitation of the donor beads provokes the release of singlet oxygen molecules that trigger a cascade of energy transfer in the acceptor beads, resulting in light emission. To quantify the amount of Aβ42 in the cell supernatant, monoclonal antibody specific to the C-terminus of Aβ42 (JRF/cAβ42/26) was coupled to the receptor beads and biotinylated antibody specific to the N-terminus of Aβ (JRF/AβN/25) was used to react with the donor beads. To quantify the amount of Aβtotal in the cell supernatant, monoclonal antibody specific to the N-terminus of Aβ (JRF/AβN/25) was coupled to the receptor beads and biotinylated antibody specific to the mid region of Aβ (biotinylated 4G8) was used to react with the donor beads.
# To obtain the values reported in Table 3, the data are calculated as percentage of the maximum amount of amyloid Beta 42 measured in the absence of the test compound.
# (§5) The sigmoidal dose response curves were analyzed using non-linear regression analysis with percentage of the control plotted against the log concentration of the compound. A 4-parameter equation was used to determine the IC50.
# γ-secretase [2] = target: T1, γ-secretase; test: Screening for γ-secretase-modulating activity: Aβtotal in cell supernatant (Alphalisa sandwich immuno-assay); format: cell-based; settings: SKNBE2 human neuroblastoma cells carrying hAPP 695-wild type, overnight incubation
# Description: as §1, §2, §3, §4, §5
# Aβ42 = test: In vivo efficacy: brain levels of soluble Aβ42 in non-transgenic rodents (MSD electrochemiluminescence); set-up: species or system mouse; settings: dose 30 mg/kg oral dosing, soluble fraction, untreated animals (Ctrl) set at 100, typical protocol 4 h after dose
# Text: To determine whether acute administration of an Aβ42 lowering agent would reduce Aβ42 levels in vivo, non-transgenic rodents, e.g. mice or rats were used. Animals treated with the Aβ42 lowering agent were examined and compared to those untreated or treated with vehicle and brain levels of soluble Aβ42, Aβ40, Aβ38, and Aβ37 were quantitated by Meso Scale Discovery's (MSD) electrochemiluminescence detection technology. Treatment periods varied from hours (h) to days and were adjusted based on the results of the Aβ42 lowering once a time course of onset of effect could be established.
# A typical protocol for measuring Aβ42 lowering in vivo is shown but it is only one of many variations that could be used to optimize the levels of detectable Aβ. […] After 4 h, the animals were sacrificed and Aβ42 levels were analysed.
# Blood was collected by decapitation and exsanguinations in EDTA-treated collection tubes. […] The left hemisphere was stored at −18° C. for quantitative analysis of test compound levels. […]
# Mouse brains from non-transgenic animals were resuspended in 8 volumes of 0.4% DEA (diethylamine)/50 mM NaCl containing protease inhibitors (Roche-11873580001 or 04693159001) per gram of tissue, e.g. for 0.158 g brain, add 1.264 ml of 0.4% DEA. […] Nine parts of supernatant were neutralized with 1 part 0.5 M Tris-HCl pH 6.8 and used to quantify Aβ. […]
smiles,measurement,setting,value
"Cc1cn(-c2ccc3n(c2=O)C[C@@H]2CC[C@@H](Cc4cc(C(F)(F)F)cc(C(F)(F)F)c4)N2C3=O)cn1 (single isomer, unassigned) [Compound 4, 3-[[3,5-bis(trifluoromethyl)phenyl]methyl]-2,3,11,11a-tetrahydro-8-(4-methyl-1H-imidazol-1-yl)-1H-pyrido[1,2-a]pyrrolo[1,2-d]pyrazine-5,9-dione ((3S, 11aS) or (3R, 11aR))]",IC50,γ-secretase [1],50 nM
same,IC50,γ-secretase [2],> 10000 nM
same,Aβ42 (% vs Ctrl) _Mean,Aβ42,47 % vs Ctrl

# — patent US10112943B2, “Substituted imidazoles as gamma secretase modulators” (Janssen Pharmaceutica NV, priority 2012, dated 2018)
